# Measurements as given in US11059828B2, “Disubstituted octahydropyrrolo[3,4-C]pyrroles as orexin receptor modulators” (Janssen Pharmaceutica NV, priority 2009, dated 2021).
# pKi: −log10 of the molar value.
# Biological target: human orexin-2 receptor (Homo sapiens (Human), UniProt O43614)
# Experiment: Human Orexin 2 Receptor Radioligand Binding Studies ([3H]-EMPA competition)
# Details: HEK293 cells stably expressing human orexin-2 receptor; [3H]-EMPA 5 nM; apparent Ki; read-out: OR 2 Ki
# Sequence of human orexin-2 receptor (O43614 whole entry): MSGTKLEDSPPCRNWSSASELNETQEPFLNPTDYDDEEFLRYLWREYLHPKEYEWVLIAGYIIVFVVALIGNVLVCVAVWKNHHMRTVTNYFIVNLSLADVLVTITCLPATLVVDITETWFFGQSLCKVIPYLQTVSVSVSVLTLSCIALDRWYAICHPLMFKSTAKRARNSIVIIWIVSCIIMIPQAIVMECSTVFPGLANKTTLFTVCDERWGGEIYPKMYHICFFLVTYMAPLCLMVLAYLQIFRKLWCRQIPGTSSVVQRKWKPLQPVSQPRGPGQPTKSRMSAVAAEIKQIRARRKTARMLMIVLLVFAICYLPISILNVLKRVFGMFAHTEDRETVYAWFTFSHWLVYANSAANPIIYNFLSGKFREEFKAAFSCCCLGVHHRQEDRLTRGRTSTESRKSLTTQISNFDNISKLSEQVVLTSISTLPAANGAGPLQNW
smiles,measurement,value
"O=C(c1cccc(F)c1-n1nccn1)N1CC2CN(c3cnc4cc(F)c(F)cc4n3)CC2C1 (stereo not shown) [Example 244, (5-(6,7-Difluoroquinoxalin-2-yl)hexahydropyrrolo[3,4-c]pyrrol-2(1H)-yl)(3-fluoro-2-(2H-1,2,3-triazol-2-yl)phenyl)methanone]",pKi,7.74
